Results taken from the supplement of paper PMC10307832.

Tests used:
Assay in all cases: relative viability (nuclei count vs DMSO), 5 days (fraction); higher = more cells survive
[1] = compound: CC1=CSC(=NC2CCCCC2)N1/N=C/C3=C(C(=C(C=C3)O)O)O [MIM1]
Outline: (§1)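 Nuclei counted with MetaXpress define viability as the ratio of treated to vehicle wells, given as a median across plates. The lung cancer cell lines were in 1536-well plates, pinned with five √10-spaced library-drug doses and imaged at 4× after 5 days and Hoechst staining. Plates passed with control CV below 25% and at least one doubling.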

[2] = compound: CCNC(=O)c1noc(-c2cc(C(C)C)c(O)cc2O)c1-c1ccc(CN2CCOCC2)cc1 [Luminespib]
Outline: as §1

[3] = compound: CN1CCN(CCOc2cc(OC3CCOCC3)c3c(Nc4c(Cl)ccc5c4OCO5)ncnc3c2)CC1 [Saracatinib]
Outline: as §1

[4] = compound: Cc1cn(-c2cc(NC(=O)c3ccc(C)c(Nc4nccc(-c5cccnc5)n4)c3)cc(C(F)(F)F)c2)cn1 [Nilotinib]
Outline: as §1

[5] = compound: Nc1cccc2c1CN(C1CCC(=O)NC1=O)C2=O [Lenalidomide]
Outline: as §1

Cell Line | relative viability ([1]; 0.2 µM) | relative viability ([1]; 0.6325 µM) | relative viability ([1]; 2 µM) | relative viability ([1]; 6.325 µM) | relative viability ([1]; 20 µM) | relative viability ([2]; 0.002 µM) | relative viability ([2]; 0.006325 µM) | relative viability ([2]; 0.01 µM, anchor plate) | relative viability ([2]; 0.02 µM) | relative viability ([2]; 0.06325 µM) | relative viability ([2]; 0.2 µM) | relative viability ([3]; 0.02 µM) | relative viability ([3]; 0.2 µM) | relative viability ([3]; 0.6325 µM) | relative viability ([3]; 2 µM) | relative viability ([4]; 0.001 µM) | relative viability ([4]; 0.003162 µM) | relative viability ([4]; 0.01 µM) | relative viability ([4]; 0.03162 µM) | relative viability ([4]; 0.1 µM) | relative viability ([5]; 0.253 µM) | relative viability ([5]; 2.53 µM) | relative viability ([5]; 8 µM) | relative viability ([5]; 0.8 µM)
SW 900 | 0.915 | 0.947 | 0.782 | 0.502 | 0.158 | 0.945 | 0.732 | 0.18 | 0.474 | 0.138 | 0.132 | 0.97 | 0.658 | 0.878 | 0.694 | 0.748 | 0.939 | 1.07 | 0.639 | 0.611 | 0.809 | 1.03 | 0.598 | –
SW 1573 | 1.1 | 0.966 | 0.976 | 0.763 | 0.488 | 1.04 | 0.976 | 0.217 | 0.595 | 0.108 | 0.107 | 0.931 | 0.785 | 0.877 | 0.729 | 0.906 | 1.2 | 1.12 | 0.737 | 0.66 | 0.914 | 1.08 | 0.925 | 1.01
UMC-11 | 0.962 | 0.725 | 1.08 | 0.747 | 0.284 | 0.962 | 0.976 | 1.03 | 0.471 | 0.587 | 0.221 | 0.971 | 0.729 | 1.02 | 0.807 | 0.934 | 1.09 | 1.15 | 0.686 | 0.863 | 0.999 | 1.09 | 0.778 | 0.846
